The values below are quoted from earlier work in patent US20130274214A1, “METHOD FOR TREATING BLEPHARITIS” (INSPIRE PHARMACEUTICALS, INC., priority 2010, published 2013).

The subject of this series is meibomian gland secretions (meibum). The following applies: daily topical administration to the ocular surface; subjects with meibomian gland dysfunction.

Molecules are shown by their SMILES.

Take `CC[C@H]1OC(=O)[C@H](C)[C@@H](O[C@H]2C[C@@](C)(OC)[C@@H](O)[C@H](C)O2)[C@H](C)[C@@H](O[C@@H]2O[C@H](C)C[C@H](N(C)C)[C@H]2O)[C@](C)(O)C[C@@H](C)CN(C)[C@H](C)[C@@H](O)[C@]1(C)O` [azithromycin]: the “physicochemical properties of the meibum” value was “improved the physicochemical properties of the meibum towards that of normal subjects”.
